# Publication PMC10725351, “Niosomal formulation of mefenamic acid for enhanced cancer targeting; preparation, characterization and biodistribution study using radiolabeling technique” (Journal of Cancer Research and Clinical Oncology, 2023)
# Experiment: In vitro drug release study (dialysis bag, PBS pH 7.4, 37 °C) with kinetic model fitting
# Format: physicochemical
# Procedure: In comparison to the release of MEF from suspension, the MEF release from the optimal niosomal formulation was assessed. The dialysis method is the technique of choice for assessing the criteria of drug release from the niosomal formula. MEF release from niosomal formulation and suspension was monitored using a dialysis bag (MWCO12000 Da) at 37 °C for 24 h versus PBS (pH 7.4) to simulate the biological conditions. The optimal niosomes formula and suspension (1 ml of each) were loaded separately inside the dialysis tube, and the released quantity of MEF was evaluated in 100 ml of PBS with continuous stirring. At predefined intervals, (1, 2, 3, 4, 5, 6, 8, and 24 h), 2 ml of freshly formed PBS was added to replace two ml that were withdrawn from the release medium to assess the drug release rate. Lastly, the released concentrations of MEF were determined by examining the samples at 285 nm wavelength using a UV–visible spectrophotometer. This study was performed in triplicate (Targhi et al. [2021]).
# The mathematical methodology utilized to determine the kinetics of the total released percentages (cumulative) of MEF from the niosomes formulation was linear regression analysis. These models include Higuchi, Korsmeyer Peppas, First Order, and Zero Order. In the end, the correlation coefficient values were compared to select the model that best fit the data. […]
structure (smiles),measurement,setting,value
"Cc1cccc(Nc2ccccc2C(=O)O)c1C [MEF suspension, mefenamic acid]",Cumulative MEF release,"after 24 h, PBS pH 7.4, 37 °C, dialysis bag",55.36%
same,Order of permeation,best-fit release model,Diffusion
